Columns and labels:
ATOH1, POU4F3, and GFI1 = assay: Relative quantification of ATOH1, POU4F3 and GFI1 RNA in HEK293FT cells transfected with individual plasmids; assay type: cell-based; settings: FIG. 6A
Excerpt: FIG. 6A is a bar graph showing the relative quantification of ATOH1, POU4F3, and GFI1 (APG) RN in HEK293FT cells transfected with the individual plasmids of FIGS. 4A-C.
The data in FIGS. 6A and 6B show overexpression of ATOH1, POU4F3 and GFI-1 in HEK293FT cells that were transfected with the vectors of FIGS. 4A-4D.

HEK293FT cells [1] = assay: mScarlet positive HEK293FT cells with AAVanc80 vector at various MOIs, with or without TMP; assay type: cell-based; settings: 10 μM TMP added later, FIGS. 9A and 9B
Description: FIG. 9B is an image showing mScarlet positive HEK293FT cells transfected with AAVanc80 vector at various MOIs. 10 μM TMP was added at a later time point.
(§1) HEK293FT cells were transfected with mScarlet and mScarlet-DD vectors (FIGS. 7A-7B). The data in FIGS. 8A and 8B show the functionality and reversibility of the destabilizing domain (DD) using fluorescence microscopy and flow cytometry, respectively.

HEK293FT cells [2] = assay: Destabilizing domain (DD) functionality and reversibility, TMP dose response by fluorescence microscopy; assay type: cell-based; settings: TMP 0.1, 1, 10, 20 and 100 μM, FIG. 8A
Description: FIG. 8A is a dose response curve showing the functionality and reversibility of the destabilizing domain (DD) using fluorescence microscopy. Serial dilutions of TMP (0.1 μM, 1 μM, 10 μM, 20 μM and 100 μM) were tested in the mScarlet and mScarlet-DD transfected HEK293FT cells.
as §1

[3] = system: hair cells and supporting cells in cochlear explants; assay: mScarlet positive hair cells and supporting cells in cochlear explants infected with AAVanc80, with and without TMP; assay type: cell-based, mouse; settings: with and without 10 uM TMP, FIG. 10
Description: FIG. 9A is an image showing mScarlet positive cells in a P1-P3 mouse cochlea explant transfected with AAVanc80 vector at various MOIs. 10 μM TMP was added at a later time point.
FIG. 10 is an image showing mScarlet positive hair cells and supporting cells in a cochlear explants infected with AAVanc80 with and without 10 uM TMP that was added at a later time point.
as §1

| Molecule | ATOH1 and GFI-1 mRNA levels on overexpression of POU4F3 (ATOH1, POU4F3, and GFI1) | mScarlet expression (HEK293FT cells [1]) | percentage of mScarlet positive cells (HEK293FT cells [2]) | mScarlet expression in cochlear explants [3] |
| --- | --- | --- | --- | --- |
| POU4F3: nucleic acid vector with CMV promoter, human POU4F3 gene, 3×Flag, T2A, mScarlet and destabilizing domain | increase in ATOH1 and GFI-1 mRNA levels |  |  |  |
| mScarlet-DD: nucleic acid vector with ITR, CMV promoter, mScarlet, destabilizing domain (DD) and bGHpA sequences |  | primarily seen in mScarlet-DD transfected cells in the presence of TMP | increased proportionately with increasing concentration of TMP | only seen in the presence of TMP |
| mScarlet: nucleic acid vector with ITR, CMV promoter, mScarlet and bGHpA sequences (nucleic acid, pITR-CMV-mScarlet-bGHpA) DNA: CCTGCAGGCAGCTGCGCGCTCGCTCGCTCACTGAGGCCGCCCGGGCGTCGGGCGACCTTTGGTCGCCCGGCCTCAGTGAGCGAGCGAGCGCGCAGAGAGGGAGTGGCCAACTCCATCACTAGGGGTTCCTGTGATGCGGTTTTGGCAGTACATCAATGGGCGTGGATAGCGGTTTGACTCACGGGGATTTCCAAGTCTCCACCCCATTGACGTCAATGGGAGTTTGTTTTGGCACCAAAATCAACGGGACTTTCCAAAATGTCGTAACAACTCCGCCCCATTGACGCAAATGGGCGGTAGGCGTGTACGGTGGGAGGTCTATATAAGCAGAGCTCGTTTAGTGAACCGTCAGATCGCCTGGAGACGCGTGAGCAAGGGCGAGGCAGTGATCAAGGAGTTCATGCGGTTCAAGGTGCACATGGAGGGCTCCATGAACGGCCACGAGTTCGAGATCGAGGGCGAGGGCGAGGGCCGCCCCTACGAGGGCACCCAGACCGCCAAGCTGAAGGTGACCAAGGGTGGCCCCCTGCCCTTCTCCTGGGACATCCTGTCCCCTCAGTTCATGTACGGCTCCAGGGCCTTCATCAAGCACCCCGCCGACATCCCCGACTACTATAAGCAGTCCTTCCCCGAGGGCTTCAAGTGGGAGCGCGTGATGAACTTCGAGGACGGCGGCGCCGTGACCGTGACCCAGGACACCTCCCTGGAGGACGGCACCCTGATCTACAAGGTGAAGCTCCGCGGCACCAACTTCCCTCCTGACGGCCCCGTAATGCAGAAGAAGACAATGGGCTGGGAAGCGTCCACCGAGCGGTTGTACCCCGAGGACGGCGTGCTGAAGGGCGACATTAAGATGGCCCTGCGCCTGAAGGACGGCGGCCGCTACCTGGCGGACTTCAAGACCACCTACAAGGCCAAGAAGCCCGTGCAGATGCCCGGCGCCTACAACGTCGACCGCAAGTTGGACATCACCTCCCACAACGAGGACTACACCGTGGTGGAACAGTACGAACGCTCCGAGGGCCGCCACTCCACCGGCGGCATGGACGAGCTGTACAAGTAAGCTGATCAGCCTCGACTGTGCCTTCTAGTTGCCAGCCATCTGTTGTTTGCCCCTCCCCCGTGCCTTCCTTGACCCTGGAAGGTGCCACTCCCACTGTCCTTTCCTAATAAAATGAGGAAATTGCATCGCATTGTCTGAGTAGGTGTCATTCTATTCTGGGGGGTGGGGTGGGGCAGGACAGCAAGGGGGAGGATTGGGAAGACAATAGCAGGCATGCTGGGGATGCGGTGGGCTCTATGGAGGAACCCCTAGTGATGGAGTTGGCCACTCCCTCTCTGCGCGCTCGCTCGCTCACTGAGGCCGGGCGACCAAAGGTCGCCCGACGCCCGGGCTTTGCCCGGGCGGCCTCAGTGAGCGAGCGAGCGCGCAGCTGCCTGCAGG |  | seen in all HEK293FT cells | remained constant regardless of TMP concentration | seen in hair cells and supporting cells |
